# In US12466806B2, “2-substituted imidazolidine derivative containing aryl bipyridyloxy structure and preparation method and use thereof” (NANTONG UNIVERSITY, priority 2020, dated 2025):
# System: Mythimna separata
# Assay: Screening of insecticidal activity against Mythimna separata, leaf soaking method (IRAC)
# Assay type: in vivo
# Settings: concentration 500 μg/mL; 3rd instar larvae on soaked corn leaves; investigated after 48 h; 24-27° C.
# Method: Screening of Insecticidal Activity of Compounds Against Mythimna separate
# Adopting the leaf soaking method proposed by the International Resistance Action Committee (IRAC): the test target is Mythimna separata, e.g. the appropriate amount of corn leaves was fully infiltrated in the prepared liquid and then dried naturally in the shade, and placed in a petri dish with a filter paper. The 3rd instar larvas of Mythimna separata were added 10 heads per dish, cultured in the observation room at 24-27° C., and the results were investigated after 48 h. Using a brush to touch the body of the Mythimna separata, if there is no response, it is regarded as a dead insect. The test concentration is 500 μg/mL (the other concentrations of the drug solution can be obtained by diluting the drug solution with the concentration of 500 μg/mL).
row,SMILES,death rate % Mythimna separata
1,O=[N+]([O-])/N=C1\NCCN1Cc1ccc(Oc2ccc(Cl)cc2Cl)nc1 [I e],100%
2,O=[N+]([O-])/N=C1\NCCN1Cc1ccc(Oc2ccccc2)nc1 [I d],100%
3,O=[N+]([O-])/N=C1\NCCN1Cc1ccc(Oc2ccc(F)cc2)nc1 [I a],100%
4,O=[N+]([O-])/N=C1\NCCN1Cc1ccc(Oc2ccc(Cl)cc2)nc1 [I b],100%
5,O=[N+]([O-])/N=C1\NCCN1Cc1ccc(Oc2ccc(Br)cc2)nc1 [I c],80%
6,O=[N+]([O-])/N=C1\NCCN1Cc1ccc(Oc2cccc(F)c2F)nc1 [I f],100%
